Measured values published in ChEMBL document CHEMBL5108078, “Design and Synthesis of Phenyl Sulfide-Based Cationic Amphiphiles as Membrane-Targeting Antimicrobial Agents against Gram-Positive Pathogens” (J Med Chem, 2022).
≈ marks a conversion by molar mass, not a printed value. Calls of active or inactive are those of the source. The rule behind the calls is not given here.

How the values were obtained:
Staphylococcus aureus [1] = assay: Antibacterial activity against Staphylococcus aureus ATCC 29213 assessed as inhibition of bacterial growth incubated for 24 hrs by microbroth dilution method; type: functional
Staphylococcus aureus [2] = assay: Antibacterial activity against methicillin resistant Staphylococcus aureus N315 assessed as inhibition of bacterial growth incubated for 24 hrs by microbroth dilution method; type: functional
Staphylococcus aureus [3] = assay: Antibacterial activity against methicillin resistant Staphylococcus aureus NCTC10442 assessed as inhibition of bacterial growth incubated for 24 hrs by microbroth dilution method; type: functional
Staphylococcus aureus [4] = assay: Antibacterial activity against Staphylococcus aureus ATCC 29213 infected in mouse corneal infection model assessed as log reduction in bacterial load at 50 mg/ml pre-infected with bacteria for 24 hrs followed by compound administered four times a day for 3 consecutive weeks; type: functional; conditions: time 3 weeks
[5] = Hemolytic activity in rabbit RBC incubated for 1 hr by microplate reader analysis; type: toxicity, cell-based, Oryctolagus cuniculus, Erythrocyte; conditions: rabbit red blood cells (erythrocytes)
Bacillus subtilis = assay: Antibacterial activity against Bacillus subtilis CMCC63501 assessed as inhibition of bacterial growth incubated for 24 hrs by microbroth dilution method; type: functional
[6] = tested on: Staphylococcus epidermidis; assay: Antibacterial activity against Staphylococcus epidermidis ATCC 12228 assessed as inhibition of bacterial growth incubated for 24 hrs by microbroth dilution method; type: functional
[7] = tested on: Staphylococcus epidermidis; assay: Antibacterial activity against Staphylococcus epidermidis CMCC26069 assessed as inhibition of bacterial growth incubated for 24 hrs by microbroth dilution method; type: functional
Enterococcus faecalis = assay: Antibacterial activity against Enterococcus faecalis ATCC 29212 assessed as inhibition of bacterial growth incubated for 24 hrs by microbroth dilution method; type: functional
Staphylococcus aureus [8] = assay: Antibacterial activity against Staphylococcus aureus ATCC 29213 assessed as inhibition of bacterial growth in presence of 20 umol/L Fe2+ (reference value: […] microg/ml); type: functional
Staphylococcus aureus [9] = assay: Bactericidal activity against Staphylococcus aureus ATCC 29213 at 4 to 8 times MIC after 0.5 hrs by time kill assay; type: functional
Staphylococcus aureus [10] = assay: Bactericidal activity against Staphylococcus aureus ATCC 29213 at 4 to 8 times MIC after 24 hrs by time kill assay; type: functional, organism-based
Staphylococcus aureus [11] = assay: Antibacterial activity against Staphylococcus aureus ATCC 29213 assessed as inhibition of bacterial growth in presence of 140 mmol/L Na+ (reference value: […] microg/ml); type: functional
Staphylococcus aureus [12] = assay: Antibacterial activity against Staphylococcus aureus ATCC 29213 assessed as inhibition of bacterial growth in presence of 4.5 mmol/L K+ (reference value: […] microg/ml); type: functional
Staphylococcus aureus [13] = assay: Antibacterial activity against Staphylococcus aureus ATCC 29213 assessed as inhibition of bacterial growth in presence of 2.50 mmol/L Ca2+ (reference value: […] microg/ml); type: functional
Staphylococcus aureus [14] = assay: Antibacterial activity against Staphylococcus aureus ATCC 29213 assessed as inhibition of bacterial growth in presence of 1.00 mmol/L Mg2+ (reference value: […] microg/ml); type: functional
Staphylococcus aureus [15] = assay: Antibacterial activity against Staphylococcus aureus ATCC 29213 assessed as inhibition of bacterial growth in presence of 19 umol/L Zn2+ (reference value: […] microg/ml); type: functional
Staphylococcus aureus [16] = assay: Antibacterial activity against Staphylococcus aureus ATCC 29213 assessed as inhibition of bacterial growth in presence of 20 umol/L […] (reference value: […] microg/ml); type: functional
Staphylococcus aureus [17] = assay: Antibacterial activity against methicillin resistant Staphylococcus aureus N315 assessed as inhibition of bacterial growth in presence of 140 mmol/L Na+ (reference value: […] microg/ml); type: functional
Staphylococcus aureus [18] = assay: Antibacterial activity against methicillin resistant Staphylococcus aureus N315 assessed as inhibition of bacterial growth in presence of 4.5 mmol/L K+ (reference value: […] microg/ml); type: functional
Staphylococcus aureus [19] = assay: Antibacterial activity against methicillin resistant Staphylococcus aureus N315 assessed as inhibition of bacterial growth in presence of 2.50 mmol/L Ca2+ (reference value: […] microg/ml); type: functional
Staphylococcus aureus [20] = assay: Antibacterial activity against methicillin resistant Staphylococcus aureus N315 assessed as inhibition of bacterial growth in presence of 1.00 mmol/L Mg2+ (reference value: […] microg/ml); type: functional
Staphylococcus aureus [21] = assay: Antibacterial activity against methicillin resistant Staphylococcus aureus N315 assessed as inhibition of bacterial growth in presence of 19 umol/L Zn2+ (reference value: […] microg/ml); type: functional
Staphylococcus aureus [22] = assay: Antibacterial activity against methicillin resistant Staphylococcus aureus N315 assessed as inhibition of bacterial growth in presence of 20 umol/L Fe2+ (reference value: […] microg/ml); type: functional
Staphylococcus aureus [23] = assay: Antibacterial activity against methicillin resistant Staphylococcus aureus N315 assessed as inhibition of bacterial growth in presence of 20 umol/L […] (reference value: […] microg/ml); type: functional
Staphylococcus aureus [24] = assay: Antibacterial activity against methicillin resistant Staphylococcus aureus NCTC10442 assessed as inhibition of bacterial growth in presence of 140 mmol/L Na+ (reference value: […] microg/ml); type: functional
Staphylococcus aureus [25] = assay: Antibacterial activity against methicillin resistant Staphylococcus aureus NCTC10442 assessed as inhibition of bacterial growth in presence of 4.5 mmol/L K+ (reference value: […] microg/ml); type: functional
Staphylococcus aureus [26] = assay: Antibacterial activity against methicillin resistant Staphylococcus aureus NCTC10442 assessed as inhibition of bacterial growth in presence of 2.50 mmol/L Ca2+ (reference value: […] microg/ml); type: functional
Staphylococcus aureus [27] = assay: Antibacterial activity against methicillin resistant Staphylococcus aureus NCTC10442 assessed as inhibition of bacterial growth in presence of 1.00 mmol/L Mg2+ (reference value: […] microg/ml); type: functional
Staphylococcus aureus [28] = assay: Antibacterial activity against methicillin resistant Staphylococcus aureus NCTC10442 assessed as inhibition of bacterial growth in presence of 19 umol/L Zn2+ (reference value: […] microg/ml); type: functional
Staphylococcus aureus [29] = assay: Antibacterial activity against methicillin resistant Staphylococcus aureus NCTC10442 assessed as inhibition of bacterial growth in presence of 20 umol/L Fe2+ (reference value: […] microg/ml); type: functional
Staphylococcus aureus [30] = assay: Antibacterial activity against methicillin resistant Staphylococcus aureus NCTC10442 assessed as inhibition of bacterial growth in presence of 20 umol/L […] (reference value: […] microg/ml); type: functional
Cell membrane [31] = assay: Induction of cell membrane disruption in Staphylococcus aureus ATCC 29213 assessed as increase in fluorescence intensity measured for 100 mins by SYTOX green assay; type: subcellular; conditions: DDE = dose-dependent effect
Cell membrane [32] = assay: Induction of cell membrane disruption in methicillin resistant Staphylococcus aureus NCTC10442 assessed as increase in fluorescence intensity measured for 100 mins by SYTOX green assay; type: subcellular; conditions: DDE = dose-dependent effect
[33] = Displacement of BODIPY-TR-cadaverine from Lipoteichoic acid at 4 times MIC preincubated with LTA for 15 mins followed by compound addition and measured for 30 mins by fluorescence based microplate reader assay; conditions: time 45.0 min
[34] = Displacement of BODIPY-TR-cadaverine from Lipoteichoic acid preincubated with LTA for 15 mins followed by compound addition and measured for 30 mins by fluorescence based microplate reader assay; conditions: time 45.0 min; DDE = dose-dependent effect
Cell membrane [35] = assay: Disruption of membrane integrity in Staphylococcus aureus ATCC 29213 assessed as cell membrane damage at 8 times MIC incubated for 2 hrs by Live/dead staining based laser confocal microscopy analysis; type: subcellular
Staphylococcus aureus [36] = assay: Induction of morphological changes in Staphylococcus aureus ATCC 29213 assessed as perforation at 8 times MIC incubated for 2 hrs by TEM analysis; type: functional, organism-based
[37] = Cytotoxicity against mouse NCTC clone 929 cells assessed as cell viability at 50 ug/ml after 24 hrs by CCK8 assay; type: toxicity, cell-based; conditions: at 50 µg/mL, read-out: Activity
[38] = Cytotoxicity against human HEK293 cells assessed as cell viability at 50 ug/ml after 24 hrs by CCK8 assay; type: toxicity, cell-based; conditions: at 50 µg/mL, read-out: Activity
Staphylococcus aureus [39] = assay: Antibacterial activity against Staphylococcus aureus ATCC 29213 infected in mouse corneal infection model assessed as log reduction in bacterial load at 5 mg/ml pre-infected with bacteria for 24 hrs followed by compound administered four times a day for 3 consecutive weeks; type: functional; conditions: time 3 weeks
Staphylococcus aureus [40] = assay: Antibacterial activity against Staphylococcus aureus ATCC 15981 assessed as inhibition of bacterial growth incubated for 24 hrs by microbroth dilution method; type: functional

With `CN[C@H](CC(C)C)C(=O)N[C@H]1C(=O)N[C@@H](CC(N)=O)C(=O)N[C@H]2C(=O)N[C@H]3C(=O)N[C@H](C(=O)N[C@H](C(=O)O)c4cc(O)cc(O)c4-c4cc3ccc4O)[C@H](O)c3ccc(c(Cl)c3)Oc3cc2cc(c3O[C@@H]2O[C@H](CO)[C@@H](O)[C@H](O)[C@H]2O[C@H]2C[C@](C)(N)[C@H](O)[C@H](C)O2)Oc2ccc(cc2Cl)[C@H]1O` [VANCOMYCIN] as the molecule, how does the MIC (Staphylococcus aureus [1]) read?
Its MIC is 0.78 µg/mL (≈ 0.538 µM).

What about the MIC (Staphylococcus aureus [2]) of the same molecule?
Its MIC is 1.56 µg/mL (≈ 1.08 µM).

What about the MIC (Staphylococcus aureus [3]) of the same molecule?
The MIC was 0.78 µg/mL (≈ 0.538 µM).

And the “log(activity)” value (Staphylococcus aureus [4])?
Its value is 5.21.

Which HC50 at 1 h [5] does the source give for `COC(=O)[C@H](CCCNC(=N)N)NC(=O)COc1ccc(C(C)(C)CC(C)(C)C)cc1Sc1cc(C(C)(C)CC(C)(C)C)ccc1OCC(=O)N[C@@H](CCCNC(=N)N)C(=O)OC` here?
The HC50 at 1 h was over 200 µg/mL.

What about the MIC (Staphylococcus aureus [1]) of the same molecule?
Its MIC is 1.56 µg/mL (≈ 1.73 µM).

What about the MIC (Staphylococcus aureus [2]) of the same molecule?
Its MIC is 0.78 µg/mL (≈ 0.867 µM).

And the MIC (Staphylococcus aureus [3])?
Its MIC is 0.78 µg/mL (≈ 0.867 µM).

And the MIC (Bacillus subtilis)?
Its MIC is 0.78 µg/mL (≈ 0.867 µM).

And the MIC [6]?
The MIC was 0.39 µg/mL (≈ 0.434 µM).

What about the MIC [7] of the same molecule?
Its MIC is 0.39 µg/mL (≈ 0.434 µM).

What about the MIC (Enterococcus faecalis) of the same molecule?
The MIC was 0.78 µg/mL (≈ 0.867 µM).

And the MIC (Staphylococcus aureus [8])?
The MIC was 0.78 µg/mL.

What about the Activity (Staphylococcus aureus [9]) of the same molecule?
The Activity was 99.99%.

What about the Activity (Staphylococcus aureus [10]) of the same molecule?
The Activity was “Active”.

And the MIC (Staphylococcus aureus [11])?
The MIC was 1.56 µg/mL.

And the MIC (Staphylococcus aureus [12])?
Its MIC is 1.56 µg/mL.

And the MIC (Staphylococcus aureus [13])?
Its MIC is 1.56 µg/mL.

And the MIC (Staphylococcus aureus [14])?
Its MIC is 1.56 µg/mL.

And the MIC (Staphylococcus aureus [15])?
Its MIC is 0.78 µg/mL.

And the MIC (Staphylococcus aureus [16])?
Its MIC is 0.78 µg/mL.

And the MIC (Staphylococcus aureus [17])?
The MIC was 0.39 µg/mL.

And the MIC (Staphylococcus aureus [18])?
Its MIC is 0.78 µg/mL.

What about the MIC (Staphylococcus aureus [19]) of the same molecule?
The MIC was 0.78 µg/mL.

What about the MIC (Staphylococcus aureus [20]) of the same molecule?
Its MIC is 0.78 µg/mL.

And the MIC (Staphylococcus aureus [21])?
Its MIC is 0.78 µg/mL.

What about the MIC (Staphylococcus aureus [22]) of the same molecule?
The MIC was 0.78 µg/mL.

What about the MIC (Staphylococcus aureus [23]) of the same molecule?
Its MIC is 0.78 µg/mL.

What about the MIC (Staphylococcus aureus [24]) of the same molecule?
The MIC was 0.78 µg/mL.

And the MIC (Staphylococcus aureus [25])?
The MIC was 0.78 µg/mL.

And the MIC (Staphylococcus aureus [26])?
Its MIC is 0.78 µg/mL.

And the MIC (Staphylococcus aureus [27])?
The MIC was 0.78 µg/mL.

And the MIC (Staphylococcus aureus [28])?
Its MIC is 0.78 µg/mL.

And the MIC (Staphylococcus aureus [29])?
The MIC was 0.78 µg/mL.

And the MIC (Staphylococcus aureus [30])?
Its MIC is 0.78 µg/mL.

What about the Activity (Cell membrane [31]) of the same molecule?
Its Activity is “Dde”.

What about the Activity (Cell membrane [32]) of the same molecule?
Its Activity is “Dde”.

What about the Activity [33] of the same molecule?
The Activity was 62.2%.

What about the Activity [34] of the same molecule?
The Activity was “Dde”.

And the Activity (Cell membrane [35])?
The Activity was “Active”.

And the Activity (Staphylococcus aureus [36])?
Its Activity is “Active”.

What about the viability at 24 h, 50 ug/ml [37] of the same molecule?
The viability at 24 h, 50 ug/ml was 53.1%.

And the viability at 24 h, 50 ug/ml [38]?
Its viability at 24 h, 50 ug/ml is 55.9%.

And the “log(activity)” value (Staphylococcus aureus [39])?
The value was 6.81.

What about the MIC (Staphylococcus aureus [40]) of the same molecule?
The MIC was 0.78 µg/mL (≈ 0.867 µM).
